The values below are quoted from earlier work in PMC9578392, “Safety, Tolerability, and Pharmacokinetics of the Novel Antiviral Agent Ensitrelvir Fumaric Acid, a SARS-CoV-2 3CL Protease Inhibitor, in Healthy Adults” (Antimicrobial Agents and Chemotherapy, 2022).

Structures are written as SMILES.

For this data set, the system named is SARS-CoV-2. On the set-up: method as in PMID 35352927. As to conditions: BALB/cAJcl mice; cited from earlier work.

`Cn1cnc(Cn2c(=O)[nH]/c(=N\c3cc4cn(C)nc4cc3Cl)n(Cc3cc(F)c(F)cc3F)c2=O)n1` [Ensitrelvir, ensitrelvir fumaric acid]: the “antiviral activity in mice” value is recorded as “dose-dependent antiviral activity”.
